Experiments:
[1] = test system: ZIKV; set-up: method as in ref 43 = [43]; details: by inhibiting viral entry; cited from earlier work
[2] = test system: ZIKV; set-up: method as in ref 43 = [43]; details: by inhibiting viral entry; cited from earlier work; remark: listed apart in the source
[3] = test system: ZIKV SPH; experiment: Autophagy compound library screen, ZIKV SPH titer (TCID50) in C6/36 cells; assay type: cell-based, Zika virus; details: Zika virus, C6/36; 10 µM compound, MOI 0.1, 96 h, TCID50; ± SEM, three independent trials; read-out: ZIKV SPH Relative Titer in C6/36 Cells
[4] = test system: C6/36 cells; assay type: cell-based, Ae. albopictus; details: 10 µM compound, 96 h, CellTiter-Glo; ± SEM, three independent trials
[5] = test system: autophagic vesicles in Vero cells; experiment: Autophagy detection (CYTO-ID) in Vero cells; assay type: cell-based; details: 10 µM compound, 24 h, CYTO-ID green MFI vs DMSO control
[6] = test system: ZIKV IbH; experiment: Autophagy compound screen in Vero cells infected with ZIKV IbH; assay type: cell-based, Zika virus; details: African-lineage ZIKV IbH, 10 µM
[7] = test system: ZIKV SPH; experiment: ZIKV SPH titer in compound-treated human neurons; assay type: cell-based, Zika virus; details: 10 µM, ZIKV SPH MOI 1.0, 4 days, TCID50
[8] = test system: ZIKV SPH; experiment: 7-Ketocholesterol dose-response, ZIKV SPH titer in Vero cells; assay type: cell-based; details: Zika virus, MOI 1, 24 h, 0–27 µM, TCID50, R^2 = 0.9078
[9] = test system: ZIKV SPH; experiment: Time-of-addition assay in Vero cells; assay type: cell-based, Zika virus; details: for ZIKV titer, time-of-addition / Decrease of ZIKV titers, time-of-addition: Vero
[10] = test system: ZIKV SPH; experiment: 7-Ketocholesterol and ZIKV pre-incubation (virucidal effect); assay type: cell-based, Zika virus; details: 200 µM 7-KC, 1 h, room temperature, then diluted to approx. 0.2 µM on Vero cells, MOI 0.1, 40 hpi
[11] = test system: ZIKV SPH; experiment: qRT-PCR of ZIKV genomes in cells and supernatants; assay type: cell-based, Zika virus
[12] = test system: human papillomavirus; set-up: method as in ref 39 = [39]; details: cited from earlier work
[13] = test system: human rotavirus; set-up: method as in ref 39 = [39]; details: cited from earlier work
[14] = test system: human rhinovirus; set-up: method as in ref 39 = [39]; details: cited from earlier work

C[C@H](CCCC(C)(C)O)[C@H]1CC[C@H]2[C@@H]3CC=C4C[C@@H](O)CC[C@]4(C)[C@H]3CC[C@]12C [25-hydroxycholesterol]
ZIKV titers in vitro [1]: reduced ZIKV titers | ZIKV titers in vivo [2]: reduced ZIKV titers

CC(C)CCC[C@@H](C)[C@H]1CC[C@H]2[C@@H]3C(=O)C=C4C[C@@H](O)CC[C@]4(C)[C@H]3CC[C@]12C [7-Ketocholesterol]
activity at 10 µM [3]: 9.8 ± 3.3% | C6/36 Viability [4]: 36 ± 5.1% of untreated control | Autophagy Activity Factor (AAF) [5]: 27.01 | Reduction of ZIKV IbH [6]: more than 90 % of control | ZIKV IbH titer in Vero cells compared to control [6]: reduced ZIKV IbH titers | ZIKV IbH titer in Vero cells compared to control ([6]; listed as 7-KC): dropped titers more than a log | ZIKV titer in human neurons [7]: reduced ZIKV titer | IC50 [8]: 4.06 µM | ZIKV titer, time-of-addition ([9]; 10 µM 7-KC added 12 h after infection, 24 hpi): ZIKV inhibition continued | ZIKV titer, time-of-addition ([9]; 10 µM 7-KC added 18 h after infection, 24 hpi): slight decrease in titer | Decrease of ZIKV titers, time-of-addition ([9]; 10 µM 7-KC added at 2 hpi, MOI 0.1, 24 hpi): 90% | Decrease of ZIKV titers, time-of-addition ([9]; 10 µM 7-KC added at 6 hpi, MOI 0.1, 24 hpi): 90% | Decrease of ZIKV titers, time-of-addition ([9]; 10 µM 7-KC added at the time of infection, MOI 0.1, 24 hpi): 90% | ZIKV titer, time-of-addition ([9]; 10 µM 7-KC, pre-treating cells 2 h before infection, MOI 0.1, 24 hpi): did not reduce viral titers | Decrease in infectious virions ([9]; Vero cells, 10 µM 7-KC, 24 hpi): greater than 90% | ZIKV titer after preincubation of virus stock with compound (virucidal effect) [10]: did not reduce viral titers | Budding/release efficiency (genomes in supernatant vs cell associated genomes) ([11]; Vero cells, 10 µM 7-KC, 24 hpi): approximately 30 % of untreated cells | Number of viral genome copies in the supernatant ([11]; Vero cells, 10 µM 7-KC, 24 hpi): reduced | Levels of ZIKV RNA in infected cells ([11]; Vero cells, 10 µM 7-KC, total cellular RNA at 24 hpi): not significantly altered | Specific infectivity: 1 in N genomes infectious ([11]; infectious titer vs genome copies in supernatant, Vero, 7-KC present, control 1 in 1200): ~9000 genomes | Activity against human papillomavirus [12]: no activity | Activity against human rotavirus [13]: no activity | Activity against human rhinovirus [14]: minor activity

From PMC6356585 (Viruses, 2018)
